Assay results reported in patent US6410011B1, “Gene therapy for restenosis using an adenoviral vector” (priority 1994, dated 2002).

Key:
rabbit aorta VSMC = test: Cytotoxic activity of the Ad-RSV-TK/ganciclovir combination on smooth muscle cells in culture, by cell counting; type: cell-based; conditions: ganciclovir alone or Ad-RSV-TK alone
Description: The activity of the adenovirus containing the TK gene, prepared in Example 1, was checked on in vitro models of smooth muscle cells. To this end, smooth muscle cells isolated from rat and rabbit aorta were infected with the recombinant adenovirus Ad-RSV-tk and incubated in the presence of ganciclovir. The effect of the Ad-RSV-tk/ganciclovir combination on cell viability is then confirmed by the colorimetric test employing MTT, 3-(4,5-dimethylthiazol-2-yl)-2,5-diphenyl-tetrazolium bromide, according to the technique described by Mosman (J. Immunol. Meth. 65 (1983) 55), or more accurately by cell counting. Briefly, vascular smooth muscle cells (VSMC) are set up in culture by enzymatic digestion of NZW rabbit aorta according to a method adapted from Chamley et al. (Cell Tissue Res. 177: 503-522 1977). The cells are maintained in the presence of 20% of foetal calf serum and used for all the tests (see below) before the tenth passage. […]
In order to measure the cytotoxic activity of the Ad-RSV-TK/ganciclovir combination, rabbit aorta VSMC are incubated in the presence of the adenovirus diluted in culture medium (DMEM, 0.5% FCS). […] Four days after the addition of ganciclovir, the cells are counted (100% cell viability corresponding to cells not transduced with Ad-RSV-TK and not treated with ganciclovir).

[1] = patients treated for viral infection with a non-toxic dose; cited from earlier work

Nc1nc(O)c2ncn(COC(CO)CO)c2n1 [ganciclovir]
cell death with a single agent (rabbit aorta VSMC): neither simple treatment with ganciclovir nor transduction with Ad-RSV-TK per se is associated with cell death | plasma concentrations [1]: above 15 μM
